The record followed here is US9173391B2, “Crystalline complexes of 4-hydroxy benzoic acid and selected pesticides” (BASF SE, priority 2009, dated 2015).

Molecules are shown by their SMILES. Values after ≈ are worked out from the molar mass of the structure shown.

The data set in a line: physchem. To be noted: water, thermodynamic from solid.

With `C/C(=N\C#N)N(C)Cc1ccc(Cl)nc1` [crystalline acetamiprid, acetamiprid], the concentration in solution (solubility at 24 h) was 2750 µg/mL (≈ 12.3 mM).
